Experimental data as given in ChEMBL document CHEMBL1134862, “Rational design of 4,5-disubstituted-5,7-dihydro-pyrrolo[2,3-d]pyrimidin-6-ones as a novel class of inhibitors of epidermal growth factor receptor (EGF-R) and Her2(p185(erbB)) tyrosine kinases” (Bioorg Med Chem Lett, 2002).
pIC50: −log10 of the molar value.

Assays:
[1] = molecular target: T1, Epidermal growth factor receptor (Homo sapiens, UniProt P00533); assay: Inhibition of autophosphorylation of human epidermal growth factor-receptor (EGF-R) expressed in A431 cells; type: functional, cell-based, A-431
[2] = molecular target: T1, Epidermal growth factor receptor; assay: Inhibitory activity towards tyrosine phosphorylation for the epidermal growth factor-receptor kinase
[3] = molecular target: Receptor tyrosine-protein kinase erbB-2 (Homo sapiens, UniProt P04626); assay: Inhibition of autophosphorylation of human Her (p185erbB) tyrosine kinase expressed in SKOV-3 cells; type: functional, cell-based, SK-OV-3
[4] = molecular target: Vascular endothelial growth factor receptor 2 (Homo sapiens, UniProt P35968); assay: Inhibition of tyrosine phosphorylation in cells expressing human VEGFR2 (Flk-1/KDR) kinase
[5] = molecular target: Platelet-derived growth factor receptor beta (Homo sapiens, UniProt P09619); assay: Inhibitory activity towards tyrosine phosphorylation of PDGF-receptor beta kinase
Platelet-derived growth factor receptor beta, sequence (P09619 whole entry): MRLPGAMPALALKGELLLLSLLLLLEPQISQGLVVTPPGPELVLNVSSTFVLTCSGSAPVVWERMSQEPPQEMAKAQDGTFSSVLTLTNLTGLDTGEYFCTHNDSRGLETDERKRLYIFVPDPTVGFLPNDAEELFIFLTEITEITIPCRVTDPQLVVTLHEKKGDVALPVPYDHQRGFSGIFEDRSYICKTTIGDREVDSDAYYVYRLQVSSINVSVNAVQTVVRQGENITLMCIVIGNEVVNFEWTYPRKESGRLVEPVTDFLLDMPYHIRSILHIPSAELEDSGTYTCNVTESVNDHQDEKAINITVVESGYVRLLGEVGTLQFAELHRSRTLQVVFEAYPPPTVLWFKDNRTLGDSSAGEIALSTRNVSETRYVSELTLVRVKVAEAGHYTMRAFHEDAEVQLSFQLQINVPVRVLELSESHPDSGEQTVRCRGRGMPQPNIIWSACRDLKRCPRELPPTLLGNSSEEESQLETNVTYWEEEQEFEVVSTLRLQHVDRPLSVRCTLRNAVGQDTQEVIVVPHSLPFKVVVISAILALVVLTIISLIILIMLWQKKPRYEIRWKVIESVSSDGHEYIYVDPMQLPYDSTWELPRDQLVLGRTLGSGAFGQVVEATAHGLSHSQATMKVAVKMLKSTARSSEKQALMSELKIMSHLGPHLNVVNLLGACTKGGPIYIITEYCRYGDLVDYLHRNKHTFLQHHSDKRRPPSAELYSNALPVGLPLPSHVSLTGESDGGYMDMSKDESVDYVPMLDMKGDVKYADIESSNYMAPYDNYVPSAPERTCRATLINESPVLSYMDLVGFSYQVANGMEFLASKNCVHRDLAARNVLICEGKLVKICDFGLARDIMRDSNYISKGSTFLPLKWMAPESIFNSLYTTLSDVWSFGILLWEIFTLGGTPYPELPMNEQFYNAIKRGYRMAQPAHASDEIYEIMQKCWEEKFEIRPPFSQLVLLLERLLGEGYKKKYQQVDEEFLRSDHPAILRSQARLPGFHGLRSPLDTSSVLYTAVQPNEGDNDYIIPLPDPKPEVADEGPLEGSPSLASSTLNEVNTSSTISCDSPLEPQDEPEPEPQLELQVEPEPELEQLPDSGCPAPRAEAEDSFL

Vascular endothelial growth factor receptor 2, sequence (P35968 whole entry): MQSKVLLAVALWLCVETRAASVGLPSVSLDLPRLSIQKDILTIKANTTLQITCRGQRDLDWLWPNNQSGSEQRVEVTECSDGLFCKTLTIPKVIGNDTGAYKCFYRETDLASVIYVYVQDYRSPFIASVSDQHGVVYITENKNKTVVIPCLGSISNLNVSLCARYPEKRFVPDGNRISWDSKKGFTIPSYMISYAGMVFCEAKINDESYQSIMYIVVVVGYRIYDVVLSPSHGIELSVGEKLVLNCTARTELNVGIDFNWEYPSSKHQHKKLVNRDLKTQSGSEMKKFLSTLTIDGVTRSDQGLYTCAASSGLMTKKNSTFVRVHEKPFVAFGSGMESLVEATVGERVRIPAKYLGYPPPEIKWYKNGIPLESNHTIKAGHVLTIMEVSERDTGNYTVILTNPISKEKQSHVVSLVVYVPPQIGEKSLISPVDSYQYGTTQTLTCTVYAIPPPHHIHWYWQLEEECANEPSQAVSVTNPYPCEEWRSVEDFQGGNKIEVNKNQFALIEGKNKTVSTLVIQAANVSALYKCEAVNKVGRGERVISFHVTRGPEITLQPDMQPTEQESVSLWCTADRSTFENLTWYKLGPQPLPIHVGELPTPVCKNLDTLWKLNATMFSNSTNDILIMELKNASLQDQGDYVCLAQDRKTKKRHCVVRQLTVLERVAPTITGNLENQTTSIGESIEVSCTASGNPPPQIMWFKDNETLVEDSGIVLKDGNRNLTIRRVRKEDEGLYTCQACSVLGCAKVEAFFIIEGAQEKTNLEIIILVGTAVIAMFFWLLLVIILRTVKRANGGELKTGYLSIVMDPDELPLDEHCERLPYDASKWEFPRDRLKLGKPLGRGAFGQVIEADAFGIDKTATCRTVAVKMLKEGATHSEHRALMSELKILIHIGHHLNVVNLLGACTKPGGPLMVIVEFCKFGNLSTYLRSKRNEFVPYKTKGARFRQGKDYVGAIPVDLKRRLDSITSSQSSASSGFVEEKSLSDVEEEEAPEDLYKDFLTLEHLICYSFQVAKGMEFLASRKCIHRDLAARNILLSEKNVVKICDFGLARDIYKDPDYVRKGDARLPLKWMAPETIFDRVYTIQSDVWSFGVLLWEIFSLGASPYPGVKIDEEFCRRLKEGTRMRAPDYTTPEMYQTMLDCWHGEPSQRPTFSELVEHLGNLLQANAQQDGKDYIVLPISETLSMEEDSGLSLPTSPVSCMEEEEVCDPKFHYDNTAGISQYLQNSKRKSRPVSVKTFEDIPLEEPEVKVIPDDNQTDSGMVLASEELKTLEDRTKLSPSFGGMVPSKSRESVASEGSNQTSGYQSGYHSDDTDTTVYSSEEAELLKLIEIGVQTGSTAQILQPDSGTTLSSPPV
Receptor tyrosine-protein kinase erbB-2, sequence (P04626 whole entry): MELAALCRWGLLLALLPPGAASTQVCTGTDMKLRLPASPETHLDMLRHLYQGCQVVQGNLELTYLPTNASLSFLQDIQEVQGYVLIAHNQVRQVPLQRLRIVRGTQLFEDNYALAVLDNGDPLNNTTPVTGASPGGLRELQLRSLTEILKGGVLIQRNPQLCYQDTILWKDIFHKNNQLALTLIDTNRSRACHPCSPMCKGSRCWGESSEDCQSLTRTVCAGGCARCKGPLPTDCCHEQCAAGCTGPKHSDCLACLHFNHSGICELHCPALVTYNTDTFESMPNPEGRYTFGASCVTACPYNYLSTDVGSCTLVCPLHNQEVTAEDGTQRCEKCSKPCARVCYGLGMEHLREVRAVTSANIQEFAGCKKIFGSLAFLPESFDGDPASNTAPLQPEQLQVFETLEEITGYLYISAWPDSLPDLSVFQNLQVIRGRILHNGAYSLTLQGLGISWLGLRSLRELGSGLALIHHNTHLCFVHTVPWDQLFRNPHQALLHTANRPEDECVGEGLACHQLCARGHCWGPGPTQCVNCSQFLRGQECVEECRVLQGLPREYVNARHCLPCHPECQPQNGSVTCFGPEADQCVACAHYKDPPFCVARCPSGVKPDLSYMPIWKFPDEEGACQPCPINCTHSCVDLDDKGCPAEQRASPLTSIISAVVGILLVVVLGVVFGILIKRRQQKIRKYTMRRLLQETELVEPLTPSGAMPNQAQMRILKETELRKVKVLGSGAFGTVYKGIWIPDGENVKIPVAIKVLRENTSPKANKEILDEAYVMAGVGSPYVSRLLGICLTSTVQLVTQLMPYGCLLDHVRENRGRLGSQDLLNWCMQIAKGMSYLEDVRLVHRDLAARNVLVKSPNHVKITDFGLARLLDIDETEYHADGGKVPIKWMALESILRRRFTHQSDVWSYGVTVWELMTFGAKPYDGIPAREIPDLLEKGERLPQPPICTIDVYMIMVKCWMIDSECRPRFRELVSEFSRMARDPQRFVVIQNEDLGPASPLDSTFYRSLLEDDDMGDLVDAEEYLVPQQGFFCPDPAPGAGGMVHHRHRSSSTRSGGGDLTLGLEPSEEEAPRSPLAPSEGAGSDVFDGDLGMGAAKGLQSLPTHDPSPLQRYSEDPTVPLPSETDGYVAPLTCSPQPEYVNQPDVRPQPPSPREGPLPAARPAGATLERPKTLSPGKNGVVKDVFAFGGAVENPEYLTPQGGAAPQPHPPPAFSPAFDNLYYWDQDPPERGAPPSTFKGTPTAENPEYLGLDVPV
T1 sequence (P00533 whole entry): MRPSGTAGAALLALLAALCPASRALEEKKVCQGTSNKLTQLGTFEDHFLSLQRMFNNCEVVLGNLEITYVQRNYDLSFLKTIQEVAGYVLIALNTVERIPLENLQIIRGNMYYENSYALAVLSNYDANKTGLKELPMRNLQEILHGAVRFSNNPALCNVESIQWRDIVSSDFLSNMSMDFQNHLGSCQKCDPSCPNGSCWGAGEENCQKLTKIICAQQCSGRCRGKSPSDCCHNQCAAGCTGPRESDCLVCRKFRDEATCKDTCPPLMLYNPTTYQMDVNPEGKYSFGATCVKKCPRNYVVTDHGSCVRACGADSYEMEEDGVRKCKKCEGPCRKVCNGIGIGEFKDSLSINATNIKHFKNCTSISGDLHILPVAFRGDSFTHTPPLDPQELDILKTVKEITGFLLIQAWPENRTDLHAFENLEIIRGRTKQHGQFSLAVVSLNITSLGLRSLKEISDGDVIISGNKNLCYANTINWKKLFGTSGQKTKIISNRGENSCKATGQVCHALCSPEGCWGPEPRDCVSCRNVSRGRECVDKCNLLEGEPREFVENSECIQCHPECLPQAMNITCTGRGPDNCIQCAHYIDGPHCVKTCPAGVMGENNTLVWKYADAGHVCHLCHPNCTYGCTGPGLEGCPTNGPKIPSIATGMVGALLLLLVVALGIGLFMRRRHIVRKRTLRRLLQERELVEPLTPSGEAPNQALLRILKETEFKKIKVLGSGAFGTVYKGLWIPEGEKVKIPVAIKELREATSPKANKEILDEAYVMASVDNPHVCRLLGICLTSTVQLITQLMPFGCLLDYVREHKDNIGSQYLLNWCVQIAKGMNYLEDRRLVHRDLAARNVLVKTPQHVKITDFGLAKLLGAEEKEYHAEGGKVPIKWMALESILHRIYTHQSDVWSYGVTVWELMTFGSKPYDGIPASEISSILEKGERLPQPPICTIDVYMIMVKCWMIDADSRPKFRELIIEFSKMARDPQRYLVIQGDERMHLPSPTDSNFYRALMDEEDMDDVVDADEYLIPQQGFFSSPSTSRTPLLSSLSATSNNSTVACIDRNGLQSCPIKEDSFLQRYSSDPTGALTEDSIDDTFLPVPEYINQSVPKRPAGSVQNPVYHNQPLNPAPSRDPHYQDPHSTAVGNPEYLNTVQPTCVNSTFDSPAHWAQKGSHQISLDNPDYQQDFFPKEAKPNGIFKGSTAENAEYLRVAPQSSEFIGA

Cc1cc(C(=O)NCCN2CCOCC2)[nH]c1/C=C1\C(=O)Nc2ncnc(Nc3ccc4c(ccn4Cc4ccccc4)c3)c21
pIC50 [1]: 6.70 | pIC50 [2]: 8.96 | pIC50 [3]: 7.40 | pIC50 [4]: 5.46 | pIC50 [5]: < 4.00

O=C1Nc2ncnc(Nc3ccc(F)c(Cl)c3)c2/C1=C/c1ccc(C(=O)NCCN2CCOCC2)[nH]1
pIC50 [2]: 7.66 | pIC50 [4]: < 4.70 | pIC50 [5]: < 4.00

CCN(CC)CC(O)CNC(=O)c1cc(C)c(/C=C2\C(=O)Nc3ncnc(Nc4ccc(F)c(Cl)c4)c32)[nH]1 (stereo not drawn)
pIC50 [2]: 9.35 | pIC50 [4]: 6.44

Cc1c(C(=O)N2CCN(C)CC2)c[nH]c1/C=C1\C(=O)Nc2ncnc(Nc3ccc(F)c(Cl)c3)c21
pIC50 [2]: 6.39 | pIC50 [4]: < 4.70 | pIC50 [5]: < 4.70

Cc1cc(C(=O)O)[nH]c1/C=C1\C(=O)Nc2ncnc(Nc3ccc(F)c(Cl)c3)c21
pIC50 [1]: < 5.30 | pIC50 [2]: 7.54 | pIC50 [3]: < 5.30 | pIC50 [4]: 5.05 | pIC50 [5]: < 4.70

Cc1cc(C(=O)N2CCN(C)CC2)[nH]c1/C=C1\C(=O)Nc2ncnc(Nc3ccc(F)c(Cl)c3)c21
pIC50 [1]: 7.00 | pIC50 [2]: 8.55 | pIC50 [3]: 6.70 | pIC50 [4]: < 4.70 | pIC50 [5]: < 4.70

Cc1[nH]c(/C=C2\C(=O)Nc3ncnc(Nc4ccc(F)c(Cl)c4)c32)c(C)c1CCC(=O)O
pIC50 [2]: 6.74 | pIC50 [4]: < 4.70 | pIC50 [5]: < 4.70

Cc1cc(CCC(=O)O)[nH]c1/C=C1\C(=O)Nc2ncnc(Nc3ccc(F)c(Cl)c3)c21
pIC50 [2]: 8.33 | pIC50 [4]: < 4.70 | pIC50 [5]: < 4.70

CCN(CC)CCNC(=O)c1cc(C)c(/C=C2\C(=O)Nc3ncnc(Nc4ccc(Cl)cc4F)c32)[nH]1
pIC50 [1]: 6.30 | pIC50 [2]: 6.35 | pIC50 [4]: 7.40 | pIC50 [5]: 5.25

CCN(CC)CCNC(=O)c1c(C)[nH]c(/C=C2\C(=O)Nc3ncnc(Nc4ccc(F)c(Cl)c4)c32)c1C
pIC50 [2]: 6.70 | pIC50 [4]: 5.46 | pIC50 [5]: < 4.70

Cc1cc(C(=O)NCCN2CCOCC2)[nH]c1/C=C1\C(=O)N(C)c2ncnc(Nc3ccc(F)c(Cl)c3)c21
pIC50 [2]: 5.27 | pIC50 [4]: 5.00 | pIC50 [5]: < 4.70

Cc1cc(C(=O)N2CCOCC2)[nH]c1/C=C1\C(=O)Nc2ncnc(Nc3ccc4c(c3)CCC4)c21
pIC50 [1]: 5.30 | pIC50 [2]: 5.85 | pIC50 [3]: < 5.30 | pIC50 [4]: 5.46 | pIC50 [5]: < 4.70

CCN1CCN(C(=O)c2cc(C)c(/C=C3\C(=O)Nc4ncnc(Nc5ccc(F)c(Cl)c5)c43)[nH]2)CC1
pIC50 [1]: 6.70 | pIC50 [2]: 7.89 | pIC50 [3]: 7.00 | pIC50 [4]: < 4.70 | pIC50 [5]: < 4.70

Cc1cc(C(=O)N2CCOCC2)[nH]c1/C=C1\C(=O)Nc2ncnc(Nc3ccc4c(cnn4Cc4ccccc4)c3)c21
pIC50 [1]: 7.00 | pIC50 [2]: 8.74 | pIC50 [3]: 7.00 | pIC50 [4]: 5.68 | pIC50 [5]: < 5.00

Cc1cc(C(=O)N2CCOCC2)[nH]c1/C=C1\C(=O)Nc2ncnc(Nc3ccc4c(ccn4Cc4ccccc4)c3)c21
pIC50 [1]: 7.00 | pIC50 [2]: 8.35 | pIC50 [3]: 7.00 | pIC50 [4]: 5.69 | pIC50 [5]: < 4.70

Cc1cc(C(=O)N2CCOCC2)[nH]c1/C=C1\C(=O)Nc2ncnc(N3CCCCC3)c21
pIC50 [2]: < 4.70 | pIC50 [4]: < 4.70 | pIC50 [5]: < 4.70

Cc1cc(C)c(/C=C2\C(=O)Nc3ncnc(Nc4ccc(F)c(Cl)c4)c32)[nH]1
pIC50 [1]: 6.52 | pIC50 [2]: 7.39 | pIC50 [3]: 6.52 | pIC50 [4]: 4.78 | pIC50 [5]: < 4.00

Cc1cc(C(=O)N2CC(C)NC(C)C2)[nH]c1/C=C1\C(=O)Nc2ncnc(Nc3ccc(F)c(Cl)c3)c21 (stereo not drawn)
pIC50 [3]: 6.30 | pIC50 [4]: 5.79 | pIC50 [5]: < 4.70

CCN(CC)CCNC(=O)c1cc(C)c(/C=C2\C(=O)Nc3ncnc(Nc4ccc(F)c(Cl)c4)c32)[nH]1
pIC50 [1]: 6.70 | pIC50 [2]: 8.92 | pIC50 [3]: 6.70 | pIC50 [4]: 6.52

Cc1cc(C(=O)NCCN2CCOCC2)[nH]c1/C=C1\C(=O)Nc2ncnc(Nc3ccc(F)c(Cl)c3)c21
pIC50 [3]: 7.00 | pIC50 [4]: < 4.70 | pIC50 [5]: < 4.00

Cc1cc(C)c(/C=C2\C(=O)N(C)c3ncnc(Nc4ccc(F)c(Cl)c4)c32)[nH]1
pIC50 [2]: < 4.70 | pIC50 [4]: 5.24 | pIC50 [5]: < 4.70

Cc1cc(C(=O)N2CCOCC2)[nH]c1/C=C1\C(=O)Nc2ncnc(Nc3ccc(F)c(Cl)c3)c21
pIC50 [1]: 7.40 | pIC50 [2]: 6.77 | pIC50 [3]: 6.40 | pIC50 [4]: < 4.70 | pIC50 [5]: < 4.70

Cc1cc(/C=C2\C(=O)Nc3ncnc(Nc4ccc(F)c(Cl)c4)c32)[nH]c1C(=O)N1CCN(C)CC1
pIC50 [2]: 6.68 | pIC50 [4]: < 4.70 | pIC50 [5]: < 4.70

C#Cc1cccc(Nc2ncnc3c2/C(=C/c2[nH]c(C(=O)NCCN4CCOCC4)cc2C)C(=O)N3)c1
pIC50 [1]: 7.40 | pIC50 [2]: 7.74 | pIC50 [3]: 7.40 | pIC50 [4]: < 4.70 | pIC50 [5]: < 4.70
